Source: patent US11464802B2, “3-substituted piperidine compounds for Cbl-b inhibition, and use thereof” (Nurix Therapeutics, Inc., priority 2019, dated 2022)
pIC50: −log10 of the molar value. Where two headings read alike, the source gives them in different places.

What was measured:
[1] = target: Cbl-b (Homo sapiens (Human), UniProt Q13191); test: Cbl-b displacement assay (Cbl-b inhibition assay), TR-FRET probe displacement, Biological Example 1; type: binding
Protocol: Candidate compounds were evaluated for their ability to bind and inhibit Cbl-b, an E3 ubiquitin-protein ligase, as evidenced by their ability to displace a fluorophore-labeled probe (Example 46) bound to Cbl-b.
The ability of candidate compounds to displace a known inhibitor and thereby inhibit Cbl-b activity was measured by monitoring the interaction of Cbl-b with a fluorophore-labeled probe in the presence of the candidate compound. A truncated variant of Cbl-b (UniProt number Q13191; SEQ ID NO:1) containing an Avitag at its N-terminus was co-expressed with BirA biotin ligase and purified using a standard protocol (see Dou et al., Nature Structural and Molecular Biology 8: 982-987, 2013; Avidity LLC).
Fluorescently-labeled inhibitor probe was synthesized and tagged with BODIPY FL (Example 46). Cbl-b displacement assays were performed in a 384-well plate at room temperature in a 10 μL reaction volume by pre-incubating 0.5 nM Cbl-b or 0.125 nM Cbl-b (final concentration, indicated as “High” and “Low”, respectively) in an assay buffer containing 20 mM HEPES pH 7.5, 150 mM NaCl, 0.01% Triton X-100, 0.01% BSA, and 0.5 mM TCEP in the presence of a candidate compound in 1% DMSO (final concentration) for 1 hour. After incubation in the presence of the candidate compound, the plate was incubated for an additional 1 hour in the presence of an approximate EC40 binding saturation consisting of 150 nM fluorescently-labeled inhibitor probe and 2 nM Streptavidin-Terbium (Cisbio) (final concentrations). Following the 1 hour incubation, the plates were read for TR-FRET signal at 520/620 nM using an Envision plate reader (Perkin Elmer).

[2] = test system: primary human total T-cells; test: Primary human total T-cell activation: IL-2 secretion, Biological Example 2; type: cell-based; conditions: 48 hours, fold change over baseline; for fold induction at 0.3 µM: inhibitor 0.3 μM; for fold induction at 1 µM: inhibitor 1 μM; for fold induction at 3 µM: inhibitor 3 μM
[3] = test system: primary human total T-cells; test: Primary human total T-cell activation: CD25 surface staining, Biological Example 2; type: cell-based; conditions: 48 hours, fold change over baseline; for fold induction at 0.3 µM: inhibitor 0.3 μM; for fold induction at 1 µM: inhibitor 1 μM; for fold induction at 3 µM: inhibitor 3 μM
[4] = 0.5 nM Cbl-b final concentration (High), read-out: Cbl-b activity IC50 (High)
[5] = Cbl-b concentration (High or Low) not given, read-out: IC50 values in the Cbl-b inhibition assay of Biological Example 1
[6] = anti-CD3/anti-CD28 co-stimulation
[7] = anti-CD3/anti-CD28 co-stimulation, read-out: IL-2 secretion CD3/CD28 1 μM
[8] = anti-CD3 alone, read-out: IL-2 secretion CD3 1 μM
[9] = anti-CD3/anti-CD28 co-stimulation, read-out: CD25 staining CD3/CD28 1 μM
[10] = anti-CD3 alone, read-out: CD25 staining CD3 1 μM
[11] = 0.125 nM Cbl-b final concentration (Low), read-out: Cbl-b activity IC50 (Low)

Cbl-b, sequence (Q13191 36-427): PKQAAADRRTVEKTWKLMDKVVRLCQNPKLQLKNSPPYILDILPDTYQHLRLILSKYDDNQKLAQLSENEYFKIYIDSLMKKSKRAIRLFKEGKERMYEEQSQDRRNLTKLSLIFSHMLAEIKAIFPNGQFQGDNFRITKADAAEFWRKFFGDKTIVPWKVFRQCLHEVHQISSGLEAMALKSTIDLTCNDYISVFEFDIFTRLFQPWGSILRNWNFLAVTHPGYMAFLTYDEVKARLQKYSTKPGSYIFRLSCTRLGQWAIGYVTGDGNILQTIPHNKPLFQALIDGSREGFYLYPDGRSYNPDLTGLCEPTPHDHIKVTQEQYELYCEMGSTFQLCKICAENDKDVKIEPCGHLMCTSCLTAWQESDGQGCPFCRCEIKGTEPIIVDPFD

Row | pIC50 [1, 4] | pIC50 [1, 5] | pIC50 [1, 11] | SMILES | fold induction at 0.3 µM [2, 6] | fold induction at 1 µM [2, 7] | fold induction at 1 µM [2, 8] | fold induction at 3 µM ([2]; anti-CD3 alone) | fold induction at 0.3 µM [3, 6] | fold induction at 1 µM [3, 9] | fold induction at 1 µM [3, 10] | fold induction at 3 µM ([3]; anti-CD3 alone)
1 | 7.00 to 8.29 | 7.00 to 8.29 |  | C[C@@H]1CN(Cc2cc3c(c(C(F)(F)F)c2)CN(c2cc(C4(Cc5nncn5C)COC4)cc(NC4COC4)n2)C3=O)CCC1(F)F [Compound 29, (R)-6-((4,4-difluoro-3-methylpiperidin-1-yl)methyl)-2-(4-(3-((4-methyl-4H-1,2,4-triazol-3-yl)methyl)oxetan-3-yl)-6-(oxetan-3-ylamino)pyridin-2-yl)-4-(trifluoromethyl)isoindolin-1-one] | 11 to 15 | 11 to 15 | 0.34 to 0.66 | 0.34 to 0.66 | < 1.24 | < 1.24 | < 1.04 | < 1.04
2 | 8.30 to 9.00 |  |  | Cn1cnnc1CC1(c2cccc(N3Cc4c(cc(CN5CCC(F)(F)[C@@H](CO)C5)cc4C(F)(F)F)C3=O)c2)COC1 [Compound 16, (R)-6-((4,4-difluoro-3-(hydroxymethyl)piperidin-1-yl)methyl)-2-(3-(3-((4-methyl-4H-1,2,4-triazol-3-yl)methyl)oxetan-3-yl)phenyl)-4-(trifluoromethyl)isoindolin-1-one] | < 10 | < 10 | < 0.33 | < 0.33 | < 1.24 | < 1.24 | < 1.04 | 1.05 to 1.14
3 |  | > 9.00 | > 9.00 | C[C@H]1C[C@@H](CO)CN(Cc2cc3c(c(C(F)(F)F)c2)CN(c2cccc(C4(Cc5nncn5C)COC4)c2)C3=O)C1 (relative stereo) [Compound 23, cis-6-{[3-(hydroxymethyl)-5-methylpiperidin-1-yl]methyl}-2-(3-{3-[(4-methyl-1,2,4-triazol-3-yl)methyl]oxetan-3-yl}phenyl)-4-(trifluoromethyl)-3H-isoindol-1-one] | > 15 | > 15 | > 0.66 | > 0.66 | > 1.39 | > 1.39 | 1.05 to 1.14 | 1.05 to 1.14
4 | 8.30 to 9.00 | 8.30 to 9.00 |  | C[C@@H]1C[C@H](C)CN(Cc2cc3c(c(C(F)(F)F)c2)CN(c2cccc(-c4c(-c5nncn5C)cnn4C)c2)C3=O)C1 [Compound 45, 6-((cis-3,5-dimethylpiperidin-1-yl)methyl)-2-(3-(1-methyl-4-(4-methyl-4H-1,2,4-triazol-3-yl)-1H-pyrazol-5-yl)phenyl)-4-(trifluoromethyl)isoindolin-1-one] | 11 to 15 | 11 to 15 | 0.34 to 0.66 | 0.34 to 0.66 | 1.25 to 1.39 | < 1.24 | < 1.04 | < 1.04
5 |  | > 9.00 | > 9.00 | C[C@H]1CCCN(Cc2cc3c(c(C(F)(F)F)c2)CN(c2cccc(C4(Cc5nncn5C(F)F)COC4)c2)C3=O)C1 [Compound 36, 2-[3-(3-{[4-(difluoromethyl)-1,2,4-triazol-3-yl]methyl}oxetan-3-yl)phenyl]-6-{[(3S)-3-methylpiperidin-1-yl]methyl}-4-(trifluoromethyl)-3H-isoindol-1-one] | > 15 | > 15 | > 0.66 | > 0.66 | > 1.39 | > 1.39 | > 1.14 | > 1.14

More lines, now with the values behind:

Row | SMILES | pIC50 [1, 4] | pIC50 [1, 5] | pIC50 [1, 11] | fold induction at 0.3 µM [2, 6] | fold induction at 1 µM [2, 7] | fold induction at 1 µM [2, 8] | fold induction at 3 µM ([2]; anti-CD3 alone) | fold induction at 0.3 µM [3, 6] | fold induction at 1 µM [3, 9] | fold induction at 1 µM [3, 10] | fold induction at 3 µM ([3]; anti-CD3 alone)
6 | C[C@H]1CCCN(Cc2cc3c(c(C4CC4)n2)CN(c2cccc(C4(Cc5nncn5C(F)F)COC4)c2)C3=O)C1 [Compound 37, 4-cyclopropyl-2-[3-(3-{[4-(difluoromethyl)-1,2,4-triazol-3-yl]methyl}oxetan-3-yl)phenyl]-6-{[(3S)-3-methylpiperidin-1-yl]methyl}-3H-pyrrolo[3,4-c]pyridin-1-one] |  | 8.30 to 9.00 | 8.30 to 9.00 | > 15 | > 15 | > 0.66 | > 0.66 | > 1.39 | > 1.39 | > 1.14 | > 1.14
7 | Cn1cnnc1CC1(c2cccc(N3Cc4c(cc(CN5CCC(F)(F)[C@]6(CCOC6)C5)cc4C(F)(F)F)C3=O)c2)COC1 [Compound 13, (R)-6-((10,10-difluoro-2-oxa-7-azaspiro[4.5]decan-7-yl)methyl)-2-(3-(3-((4-methyl-4H-1,2,4-triazol-3-yl)methyl)oxetan-3-yl)phenyl)-4-(trifluoromethyl)isoindolin-1-one] | 8.30 to 9.00 |  |  | 11 to 15 | 11 to 15 | 0.34 to 0.66 | 0.34 to 0.66 | < 1.24 | < 1.24 | 1.05 to 1.14 | < 1.04
8 | C[C@H]1CCCN([C@@H](C)c2cc3c(c(C4CC4)n2)CN(c2cccc(C4(Cc5nncn5C)COC4)c2)C3=O)C1 [Compound 51, 4-cyclopropyl-2-(3-(3-((4-methyl-4H-1,2,4-triazol-3-yl)methyl)oxetan-3-yl)phenyl)-6-((S)-1-((S)-3-methylpiperidin-1-yl)ethyl)-2,3-dihydro-1H-pyrrolo[3,4-c]pyridin-1-one] |  |  | > 9.00 | > 15 | > 15 | > 0.66 | > 0.66 | > 1.39 | > 1.39 | > 1.14 | > 1.14
9 | C[C@H](c1cc2c(c(C3CC3)n1)CN(c1cccc(C3(Cc4nncn4C)COC3)c1)C2=O)N1CCC(F)(F)[C@H](C)C1 [Compound 50, 4-cyclopropyl-6-((R)-1-((R)-4,4-difluoro-3-methylpiperidin-1-yl)ethyl)-2-(3-(3-((4-methyl-4H-1,2,4-triazol-3-yl)methyl)oxetan-3-yl)phenyl)-2,3-dihydro-1H-pyrrolo[3,4-c]pyridin-1-one] |  |  | > 9.00 | > 15 | > 15 | > 0.66 | > 0.66 | > 1.39 | > 1.39 | > 1.14 | > 1.14
10 | CCOc1cc(C2(Cc3nncn3C)COC2)cc(N2Cc3c(cc(CN4CCC[C@H](C)C4)nc3C3CC3)C2=O)n1 [Compound 40, 4-cyclopropyl-2-(6-ethoxy-4-{3-[(4-methyl-1,2,4-triazol-3-yl)methyl]oxetan-3-yl}pyridin-2-yl)-6-{[(3S)-3-methylpiperidin-1-yl]methyl}-3H-pyrrolo[3,4-c]pyridin-1-one] |  | > 9.00 | > 9.00 | > 15 | > 15 | > 0.66 | > 0.66 | > 1.39 | > 1.39 | > 1.14 | > 1.14
11 | Cn1cnnc1CC1(c2cccc(N3Cc4c(cc(CN5CCCC(CC#N)C5)cc4C(F)(F)F)C3=O)c2)COC1 (stereo not shown) [Compound 4, 2-(1-((2-(3-(3-((4-methyl-4H-1,2,4-triazol-3-yl)methyl)oxetan-3-yl)phenyl)-3-oxo-7-(trifluoromethyl)isoindolin-5-yl)methyl)piperidin-3-yl)acetonitrile] |  | 8.30 to 9.00 | 8.30 to 9.00 | > 15 | > 15 | 0.34 to 0.66 | 0.34 to 0.66 | > 1.39 | > 1.39 | > 1.14 | > 1.14
12 | Cn1cnnc1CC1(c2cccc(N3Cc4c(cc(CN5CCCC6(CC6)C5)cc4C(F)(F)F)C3=O)c2)COC1 [Compound 7, 6-((5-azaspiro[2.5]octan-5-yl)methyl)-2-(3-(3-((4-methyl-4H-1,2,4-triazol-3-yl)methyl)oxetan-3-yl)phenyl)-4-(trifluoromethyl)isoindolin-1-one] | 7.00 to 8.29 |  |  | 11 to 15 | 11 to 15 | < 0.33 | 0.34 to 0.66 | > 1.39 | > 1.39 | > 1.14 | > 1.14
